Measured values: ChEMBL document CHEMBL1201862, “PubChem BioAssay data set” (2004)
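In this assay, cells in 96-well plates receive the compound at five concentrations for 48 hours. Endpoints are linearly interpolated between the surrounding concentrations. The concentration for 50% growth inhibition is given as GI50.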 Calls of active or inactive are those of the source. No stated cut-off is given here; in the data, active = GI50 up to about 1.1 µM and inactive = higher.

Experiments:
Test in all cases: NCI-60 cell line screen, 48 h
SNB-19 = system: SNB-19
MCF7 = system: MCF7
SK-MEL-2 = system: SK-MEL-2
SNB-75 = system: SNB-75
IGROV-1 = system: IGROV-1
SR = system: SR
UO-31 = system: UO-31
M14 = system: M14
OVCAR-8 = system: OVCAR-8
SK-MEL-28 = system: SK-MEL-28
HCT-116 = system: HCT-116
NCI-H226 = system: NCI-H226
NCI-H522 = system: NCI-H522
SF-268 = system: SF-268
MOLT-4 = system: MOLT-4
A549 = system: A549
KM12 = system: KM12
OVCAR-3 = system: OVCAR-3
TK-10 = system: TK-10
SK-OV-3 = system: SK-OV-3

Measured: GI50

CC(=O)C1=C(C)NC(=C(C#N)C#N)C(C#N)=C1
inactive: SNB-19 > 100 µM | MCF7 > 100 µM | SK-MEL-2 > 100 µM | SNB-75 > 100 µM | IGROV-1 > 100 µM | SR > 100 µM | UO-31 > 100 µM | M14 > 100 µM | OVCAR-8 > 100 µM | SK-MEL-28 > 100 µM | HCT-116 > 100 µM | NCI-H226 > 100 µM | NCI-H522 > 100 µM | SF-268 > 100 µM | MOLT-4 > 100 µM | A549 > 100 µM | KM12 > 100 µM

CC(C)OP(=O)(OC(C)C)/C(=N/Nc1ccc([N+](=O)[O-])cc1)Nc1ccc(N/C(=N\Nc2ccc([N+](=O)[O-])cc2)P(=O)(OC(C)C)OC(C)C)cc1
inactive: SNB-19 27.4 µM | SK-MEL-2 48 µM | SNB-75 14.2 µM | IGROV-1 4.43 µM | SR 5.66 µM | UO-31 21.4 µM | M14 14.5 µM | OVCAR-8 13.6 µM | SK-MEL-28 > 100 µM | HCT-116 4.15 µM | NCI-H226 74.1 µM | OVCAR-3 70.1 µM | NCI-H522 6.22 µM | SF-268 > 100 µM | MOLT-4 2.58 µM | A549 4.91 µM | TK-10 89.9 µM | KM12 7.93 µM

COC(=O)C(NC(=O)c1ccccc1)C(c1c(O)cc(O)cc1O)P(=O)(OC)OC (stereo not drawn)
inactive: SNB-19 > 100 µM | SK-MEL-2 > 100 µM | SK-OV-3 > 100 µM | SNB-75 > 100 µM | IGROV-1 > 100 µM | SR > 100 µM | UO-31 > 100 µM | M14 48.8 µM | OVCAR-8 > 100 µM | SK-MEL-28 > 100 µM | HCT-116 > 100 µM | NCI-H226 > 100 µM | NCI-H522 > 100 µM | SF-268 > 100 µM | MOLT-4 > 100 µM | A549 > 100 µM | TK-10 > 100 µM | KM12 > 100 µM

O=C(O)c1ccccc1CN1CCCC(C(=O)O)C1 (stereo not drawn)
inactive: SNB-19 > 100 µM | MCF7 > 100 µM | SK-MEL-2 > 100 µM | SK-OV-3 > 100 µM | SNB-75 > 100 µM | IGROV-1 > 100 µM | SR > 100 µM | UO-31 > 100 µM | M14 > 100 µM | OVCAR-8 > 100 µM | SK-MEL-28 > 100 µM | HCT-116 > 100 µM | NCI-H226 > 100 µM | OVCAR-3 > 100 µM | NCI-H522 > 100 µM | SF-268 > 100 µM | MOLT-4 > 100 µM | A549 > 100 µM | TK-10 > 100 µM | KM12 > 100 µM

COC(=O)C1=C(C(=O)OC)C23CC1C1C(C(=O)OC)=C(C(=O)OC)C12C1C=CC3C2C(=O)OC(=O)C21 (stereo not drawn)
inactive: SNB-19 62.1 µM | SK-MEL-2 35 µM | SNB-75 7.1 µM | IGROV-1 59 µM | UO-31 84.9 µM | M14 41.3 µM | OVCAR-8 48.3 µM | SK-MEL-28 65.5 µM | HCT-116 37.7 µM | OVCAR-3 3.72 µM | NCI-H522 22.4 µM | SF-268 48.3 µM | MOLT-4 38.6 µM | A549 49 µM | TK-10 > 100 µM | KM12 31 µM

NC(=O)SCC(=O)Nc1ccc2ncccc2c1
inactive: SNB-19 40.6 µM | MCF7 46.8 µM | SK-MEL-2 46.8 µM | SK-OV-3 > 100 µM | IGROV-1 > 100 µM | SR 49 µM | UO-31 > 100 µM | M14 > 100 µM | OVCAR-8 > 100 µM | SK-MEL-28 > 100 µM | HCT-116 > 100 µM | NCI-H226 > 100 µM | OVCAR-3 35.5 µM | NCI-H522 27.7 µM | SF-268 49.1 µM | A549 > 100 µM | TK-10 54.7 µM | KM12 45.4 µM

COC(=O)CCC(=O)c1ccc2c(c1)CCC2
inactive: SNB-19 > 100 µM | MCF7 > 100 µM | SK-MEL-2 > 100 µM | SK-OV-3 > 100 µM | SNB-75 > 100 µM | IGROV-1 > 100 µM | SR > 100 µM | UO-31 > 100 µM | M14 > 100 µM | OVCAR-8 > 100 µM | SK-MEL-28 > 100 µM | HCT-116 > 100 µM | OVCAR-3 > 100 µM | NCI-H522 > 100 µM | SF-268 > 100 µM | MOLT-4 > 100 µM | A549 > 100 µM | TK-10 > 100 µM

O=C1C[C@@H]2[C@@H](C=CC23CCCC3)N1O
inactive: SNB-19 > 100 µM | SK-MEL-2 > 100 µM | SK-OV-3 > 100 µM | SNB-75 > 100 µM | IGROV-1 > 100 µM | UO-31 > 100 µM | M14 > 100 µM | OVCAR-8 > 100 µM | SK-MEL-28 > 100 µM | HCT-116 > 100 µM | NCI-H226 > 100 µM | OVCAR-3 > 100 µM | NCI-H522 > 100 µM | SF-268 > 100 µM | MOLT-4 > 100 µM | A549 > 100 µM | TK-10 > 100 µM | KM12 > 100 µM

N#CCCN(CCC#N)c1ccc(C(=N/c2ccc(Cl)cc2)/N=N/c2ccc(Cl)cc2)cc1
inactive: SNB-19 24.2 µM | MCF7 10.1 µM | SK-MEL-2 9.23 µM | SK-OV-3 33 µM | SNB-75 20 µM | IGROV-1 14.6 µM | SR 18.9 µM | UO-31 15.2 µM | M14 21.5 µM | OVCAR-8 17.6 µM | SK-MEL-28 59.2 µM | HCT-116 19 µM | NCI-H226 17.3 µM | OVCAR-3 16.7 µM | NCI-H522 17 µM | SF-268 15.7 µM | MOLT-4 22.5 µM | A549 16.9 µM | TK-10 18.5 µM | KM12 13.6 µM

CCCCNC(=S)Nc1nc(C(=O)NNC(=S)NC2CCCCC2)cs1
inactive: MCF7 > 100 µM | SK-MEL-2 > 100 µM | SK-OV-3 49 µM | IGROV-1 66.5 µM | SR 8.07 µM | UO-31 45.6 µM | M14 > 100 µM | OVCAR-8 69.3 µM | HCT-116 > 100 µM | NCI-H226 > 100 µM | OVCAR-3 91.8 µM | NCI-H522 > 100 µM | SF-268 > 100 µM | MOLT-4 > 10 µM | A549 > 100 µM | TK-10 > 100 µM | KM12 > 100 µM

Cc1ccn2c(=O)cc(-c3ccccc3)nc2c1
inactive: SNB-19 > 100 µM | MCF7 > 100 µM | SK-OV-3 > 100 µM | SNB-75 18.3 µM | IGROV-1 > 100 µM | SR > 100 µM | M14 > 100 µM | OVCAR-8 > 100 µM | SK-MEL-28 > 100 µM | HCT-116 > 100 µM | NCI-H226 > 100 µM | OVCAR-3 > 100 µM | NCI-H522 55.2 µM | SF-268 > 100 µM | MOLT-4 > 100 µM | A549 > 100 µM | TK-10 > 100 µM | KM12 68.9 µM

O=S(O)CCCCCSSSCCCCCS(=O)O
inactive: SNB-19 > 100 µM | SK-MEL-2 25.9 µM | SK-OV-3 > 100 µM | SNB-75 24.6 µM | SR 3.48 µM | UO-31 35.3 µM | M14 43.7 µM | SK-MEL-28 39.8 µM | HCT-116 15.5 µM | OVCAR-3 20.2 µM | NCI-H522 24 µM | SF-268 26.9 µM | MOLT-4 4.81 µM | TK-10 29 µM | KM12 > 100 µM

O=S(=O)(N=S(c1ccccc1)c1ccccc1)c1ccccc1
inactive: SNB-19 > 100 µM | MCF7 > 100 µM | SR > 100 µM | UO-31 > 100 µM | M14 > 100 µM | OVCAR-8 > 100 µM | SK-MEL-28 > 100 µM | HCT-116 > 100 µM | NCI-H226 > 100 µM | OVCAR-3 > 100 µM | SF-268 > 100 µM | MOLT-4 > 100 µM | A549 > 100 µM | TK-10 > 100 µM | KM12 > 100 µM

Oc1c(C(Nc2cccc3cccnc23)c2ccccc2)ccc2cccnc12 (stereo not drawn)
inactive: SNB-19 4.69 µM | IGROV-1 8.04 µM | SR 2.61 µM | UO-31 4.11 µM | OVCAR-8 3.72 µM | HCT-116 5.6 µM | NCI-H226 1.73 µM | OVCAR-3 5.77 µM | NCI-H522 16.8 µM | SF-268 4.21 µM | MOLT-4 1.9 µM | A549 6.04 µM | KM12 7.41 µM

NC(CCCCO)C(=O)O (stereo not drawn)
inactive: SNB-19 > 100 µM | MCF7 > 100 µM | SK-MEL-2 > 100 µM | SK-OV-3 > 100 µM | SNB-75 > 100 µM | IGROV-1 > 100 µM | SR > 100 µM | UO-31 > 100 µM | M14 > 100 µM | OVCAR-8 > 100 µM | SK-MEL-28 > 100 µM | NCI-H226 > 100 µM | OVCAR-3 > 100 µM | NCI-H522 > 100 µM | SF-268 > 100 µM | A549 > 100 µM | TK-10 > 100 µM | KM12 > 100 µM

Cc1ccc(-c2n[nH]c(=O)n2/N=C\c2ccccc2)cc1
inactive: SNB-19 46.3 µM | MCF7 56.2 µM | SK-MEL-2 33.8 µM | SNB-75 28.6 µM | IGROV-1 47.5 µM | SR > 72.6 µM | UO-31 > 68.7 µM | M14 > 93.1 µM | OVCAR-8 53.1 µM | SK-MEL-28 > 72.8 µM | HCT-116 37.5 µM | NCI-H226 71.4 µM | OVCAR-3 > 84.1 µM | NCI-H522 33.8 µM | SF-268 28.4 µM | MOLT-4 > 79.6 µM | A549 > 88.5 µM | TK-10 > 59.2 µM | KM12 54 µM
